Key:
ERα = target: T1, ERα (Homo sapiens, UniProt P03372); experiment: SRE-SEAP and AP-1-SEAP reporter assays in HeLa cells transfected with ERα; type: cell-based; details: steroids 10^−8 M for 15 minutes (E2 as little as five minutes), SEAP six hours later
T1 construct: HeLa cells transfected with the full length ERα; expressed in transfected cells; host or cells: HeLa
Procedure: HeLa cells were co-transfected with reporter constructs in which SRE or AP-1 drive the expression of secreted alkaline phosphatase (SEAP), along with the wild type ERα (A and B); or its ligand binding domain (E), or E fused to a membrane (E-Mem) or nuclear (E-Nuc) localization sequence (A). A dominant negaitve (dn) MEK or dn Jnk were also introduced into a subset of the ERα transfected cells. Cells were exposed to vehicle or the indicated steroids (10^−8M) for 15 minutes. The steroid containing media were then removed, the cells were washed twice, and the cultures were continued in fresh medium without steroids. Supernatants were collected six hours later and SEAP activity was assayed. In FIGS. 1A and 1B, 100% indicates activity in vehicle treated cells. (C) HeLa cells were co-transfected with the ERα and nEGFP and wild type or dn mutants of the indicated transcription factors. […] (D) HeLa cells (upper panel) were transiently co-transfected with the ERα, a nonphosphorylatable dn mutant of Bad. […] Cells were then treated as in (C).
Transient transfections and reporter assays: HeLa cells were transfected using Lipofectamine Plus (Life Technologies Inc.). For reporter assays (luciferase or secreated alkaline phosphatase SEAP), serum-starved cells were treated with the indicated steroids for 15 min after which the steroid-containing media were removed, cells washed twice with 1% BSA in PBS, and fresh media without steroid were added. SEAP or luciferase assays were performed 6 h later using the Great EscAPe SEAP Chemiluminescence Kit (Clontech, Palo Alto, Calif.) or the dual luciferase Kit (Promega, Madison, Wis.), respectively, according to the manufacturer's instructions. Both reporter activities were normalized to renilla luciferase activity.

[1] = test system: calvaria-derived murine osteoblastic cells; experiment: Etoposide-induced apoptosis of calvaria-derived osteoblastic cells; type: cell-based, mouse
Source text: HeLa cells were co-transfected with reporter constructs in which SRE or AP-1 drive the expression of secreted alkaline phosphatase (SEAP), along with the wild type ERα (A and B); or its ligand binding domain (E), or E fused to a membrane (E-Mem) or nuclear (E-Nuc) localization sequence (A). A dominant negaitve (dn) MEK or dn Jnk were also introduced into a subset of the ERα transfected cells. […] In FIGS. 1A and 1B, 100% indicates activity in vehicle treated cells. (C) HeLa cells were co-transfected with the ERα and nEGFP and wild type or dn mutants of the indicated transcription factors. […] (D) HeLa cells (upper panel) were transiently co-transfected with the ERα, a nonphosphorylatable dn mutant of Bad. Calvaria-derived murine osteoblastic cells (lower panel) were pre-treated with the P13K inhibitor wortmannin. Cells were then treated as in (C). […] (E) Proposed model for a kinase-mediated non-genotropic regulation of gene transcription and apoptosis by sex steroids.
(§1) Osteoblastic cells (A) were isolated from calvaria of neonatal female or male mice, the sex of which was determined by Southern blot analysis of liver DNA with a Y chromosome specific cDNA probe; and cultured as previously described. The ability of the indicated steroids to protect against etoposide induced apoptosis was determined as in FIG. 1D, lower panel. (B) Osteoclasts were generated in bone marrow cultures from adult female or male mice, and then treated with vehicle or the indicated concentrations of steroids for 24 hours at which point the number of cells undergoing apoptosis was determined. Representative results from 1 of 4 females and 1 of 4 males examined are shown. Each point represents the mean of triplicate determinations±SD. *p<0.05 vs. vehicle, by ANOVA. (C & D) Eight-month old Swiss Webster mice (n=8-10 per group) were sham-operated, ovariectomized (OVX) or orchidectomized (ORX). […] BMD and wet uterine or seminal vesicle weight was determined six weeks later. Bars indicate means±SD. *p<0.05 vs OVX or ORX.
(§2) Quantification of apoptotic cells in vitro: Apoptosis of HeLa cells or calvaria-derived osteoblastic cells was quantified by direct visualization of changes in nuclear morphology or by trypan blue staining, respectively, as previously described (Kousteni et al, 2001). Apoptosis of osteoclasts, derived from bone marrow cells cultured with 30 ng/ml M-CSF and 30 ng/ml soluble RANK ligand, was quantified by measuring caspase 3 activity as previously described (Weinstein et al, 2002).

[2] = test system: osteoclasts generated in bone marrow cultures from adult female or male mice; experiment: Osteoclast apoptosis in bone marrow derived cultures; type: cell-based, mouse
Procedure: as §1
FIG. 8 illustrates the pro-apoptotic effect of sex steroids on osteoclasts requires Src/ERK signaling. […] After 24 hours, the percentage of apoptotic osteoclasts was determined as in FIG. 7.
as §2

MCF-7 cells = experiment: MCF-7 cell proliferation assay (3H-thymidine uptake); type: cell-based; details: 10^−12-10^−7 M for 48 h
Source text: Wet uterine (A) or seminal vesicle weight (B) of female and male mice described in FIG. 11. […] Note the following morphologic differences in the uteri of OVX- and OVX+4-estren-3α,17β-diol-treated mice as compared to uteri from sham-operated and OVX+E2-treated mice: thin and atrophic columnar epithelium; compact stroma; decreased number of glands; decreased nucleus to cytoplasmic ratio in the columnar epithelial, endometrial stroma, and myometrial cells; and absence of mitotic activity. (D) Proliferation of MCF-7 cells was determined by ^3H-thymidine uptake.
MCF-7 cell proliferation assay: MCF-7 cells were serum-starved in the presence of 10^−8 M ICI 182,780 for 96 h, after which the ICI-containing medium was replaced with medium-containing vehicle or 10^−12-10^−7 M of the indicated steroids for an additional 48 h. At that time, proliferation was assayed by measuring ^3H-Thymidine uptake as previously described (Bellido et al, 1997).

T1 sequence (P03372 whole entry): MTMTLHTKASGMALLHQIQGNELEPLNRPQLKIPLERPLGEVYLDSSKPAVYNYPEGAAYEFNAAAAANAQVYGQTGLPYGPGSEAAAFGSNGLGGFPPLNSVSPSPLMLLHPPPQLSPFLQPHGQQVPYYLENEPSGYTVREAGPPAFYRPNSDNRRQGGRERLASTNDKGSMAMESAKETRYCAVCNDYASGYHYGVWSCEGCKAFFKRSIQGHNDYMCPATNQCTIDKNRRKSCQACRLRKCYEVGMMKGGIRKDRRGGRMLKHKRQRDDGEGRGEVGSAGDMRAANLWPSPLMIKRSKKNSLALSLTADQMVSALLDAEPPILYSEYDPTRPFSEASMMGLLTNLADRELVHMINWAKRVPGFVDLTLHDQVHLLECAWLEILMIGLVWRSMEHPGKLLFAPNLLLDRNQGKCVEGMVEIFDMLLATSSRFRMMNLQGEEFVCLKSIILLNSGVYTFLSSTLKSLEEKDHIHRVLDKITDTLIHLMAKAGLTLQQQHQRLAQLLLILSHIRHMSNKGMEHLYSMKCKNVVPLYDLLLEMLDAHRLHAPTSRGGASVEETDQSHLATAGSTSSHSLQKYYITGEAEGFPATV

C[C@]12CC[C@H]3[C@@H](CCC4=C[C@H](O)CC[C@@H]43)[C@@H]1CC[C@@H]2O [4-estren-3α,17β-diol]
AP-1-dependent transcriptional activity (AP-1-SEAP) (ERα): downregulation of AP-1 | SRE-dependent transcriptional activity (SRE-SEAP) (ERα): Stimulation of SRE | difference in potency in osteoblasts from one sex versus the other ([1]; cell preparations from females or males): no difference | etoposide-induced apoptosis in primary cultures of osteoblasts ([1]; cells from female or male mice, dose dependent manner): attenuated etoposide-induced apoptosis | difference in potency in osteoclasts from females and males [2]: no difference | MCF-7 cell proliferation (MCF-7 cells): did not stimulate

Reference: patent US20030119800A1, “Bone anabolic compounds and methods of use” (priority 2001, published 2003)
